Measurements: the supplement of paper PMC13207355

What was measured:
Conditions in all cases: exposure time: 72 h
FT3469 [1] = normal neural stem cell line; test: surviving fraction (nuclei count normalised to DMSO); higher = more cells surviving (less toxic)
E28 [2] = patient-derived glioblastoma stem cells of classical subtype; test: as above
E31 [3] = patient-derived glioblastoma stem cells of proneural subtype; test: as above
E34 [4] = patient-derived glioblastoma stem cells of proneural subtype; test: as above
E57 [5] = patient-derived glioblastoma stem cells of mesenchymal subtype; test: as above
E21 [6] = patient-derived glioblastoma stem cells of mesenchymal subtype; test: as above
E13 [7] = patient-derived glioblastoma stem cells of classical subtype; test: as above
FT3469 [8] = test: phenotypic distance (Euclidean, principal components) from DMSO controls (arbitrary units); higher = stronger morphological change
E28 [9] = test: as above
E31 [10] = test: as above
E34 [11] = test: as above
E57 [12] = test: as above
E21 [13] = test: as above
E13 [14] = test: as above
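Wherever phenotypic distance (Euclidean, principal components) from DMSO controls is given: cell Painting imaging in 384-well plates, CellProfiler features reduced to at least 20 principal components, Euclidean distance versus same-plate DMSO vehicle wells (0.1% v/v), median over six images per well.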
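Wherever surviving fraction (nuclei count normalised to DMSO) is given: nuclei counted by high-content imaging of Hoechst-stained cells in laminin-coated 384-well plates, relative to 0.1% DMSO vehicle wells, with staurosporine as cell-death control.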

C=C(C)[C@H]1Cc2c(ccc3c2O[C@@H]2COc4cc(OC)c(OC)cc4[C@@H]2C3=O)O1 [Rotenone]
Conditions | phenotypic distance | surviving fraction
E13 [7], 4.1 nM | – | 1.02
E13 [7], 12.3 nM | – | 0.894
E13 [7], 37 nM | – | 0.83
E13 [7], 111.1 nM | – | 0.771
E13 [7], 333.3 nM | – | 0.632
E13 [7], 1000 nM | – | 0.566
E13 [7], 3000 nM | – | 0.212
E13 [14], 4.1 nM | 0.548 | –
E13 [14], 12.3 nM | 0.572 | –
E13 [14], 37 nM | 1.04 | –
E13 [14], 111.1 nM | 1.22 | –
E13 [14], 333.3 nM | 2.49 | –
E13 [14], 1000 nM | 3.77 | –
E13 [14], 3000 nM | 6.02 | –
E21 [6], 4.1 nM | – | 0.993
E21 [6], 12.3 nM | – | 0.918
E21 [6], 37 nM | – | 0.978
E21 [6], 111.1 nM | – | 0.905
E21 [6], 333.3 nM | – | 0.822
E21 [6], 1000 nM | – | 0.511
E21 [6], 3000 nM | – | 0.147
E21 [13], 4.1 nM | 0.532 | –
E21 [13], 12.3 nM | 0.585 | –
E21 [13], 37 nM | 0.921 | –
E21 [13], 111.1 nM | 1.37 | –
E21 [13], 333.3 nM | 2.24 | –
E21 [13], 1000 nM | 3.52 | –
E21 [13], 3000 nM | 7.81 | –
E28 [2], 4.1 nM | – | 1.05
E28 [2], 12.3 nM | – | 0.989
E28 [2], 37 nM | – | 0.906
E28 [2], 111.1 nM | – | 0.904
E28 [2], 333.3 nM | – | 0.818
E28 [2], 1000 nM | – | 0.648
E28 [2], 3000 nM | – | 0.425
E28 [9], 4.1 nM | 0.546 | –
E28 [9], 12.3 nM | 0.394 | –
E28 [9], 37 nM | 0.642 | –
E28 [9], 111.1 nM | 0.779 | –
E28 [9], 333.3 nM | 1.31 | –
E28 [9], 1000 nM | 2.44 | –
E28 [9], 3000 nM | 3.1 | –
E31 [3], 4.1 nM | – | 0.905
E31 [3], 12.3 nM | – | 0.93
E31 [3], 37 nM | – | 1
E31 [3], 111.1 nM | – | 0.862
E31 [3], 333.3 nM | – | 0.672
E31 [3], 1000 nM | – | 0.385
E31 [3], 3000 nM | – | 0.135
E31 [10], 4.1 nM | 0.668 | –
E31 [10], 12.3 nM | 0.711 | –
E31 [10], 37 nM | 2.14 | –
E31 [10], 111.1 nM | 1.02 | –
E31 [10], 333.3 nM | 1.3 | –
E31 [10], 1000 nM | 2.13 | –
E31 [10], 3000 nM | 5.49 | –
E34 [4], 4.1 nM | – | 1.04
E34 [4], 12.3 nM | – | 1.04
E34 [4], 37 nM | – | 0.855
E34 [4], 111.1 nM | – | 0.843
E34 [4], 333.3 nM | – | 0.755
E34 [4], 1000 nM | – | 0.786
E34 [4], 3000 nM | – | 0.473
E34 [11], 4.1 nM | 0.805 | –
E34 [11], 12.3 nM | 1 | –
E34 [11], 37 nM | 0.736 | –
E34 [11], 111.1 nM | 0.699 | –
E34 [11], 333.3 nM | 1.76 | –
E34 [11], 1000 nM | 1.95 | –
E34 [11], 3000 nM | 3.52 | –
E57 [5], 4.1 nM | – | 1.04
E57 [5], 12.3 nM | – | 1.05
E57 [5], 37 nM | – | 0.983
E57 [5], 111.1 nM | – | 0.959
E57 [5], 333.3 nM | – | 0.941
E57 [5], 1000 nM | – | 0.821
E57 [5], 3000 nM | – | 0.188
E57 [12], 4.1 nM | 0.304 | –
E57 [12], 12.3 nM | 0.356 | –
E57 [12], 37 nM | 0.67 | –
E57 [12], 111.1 nM | 0.385 | –
E57 [12], 333.3 nM | 1.23 | –
E57 [12], 1000 nM | 1.95 | –
E57 [12], 3000 nM | 6.35 | –
FT3469 [1], 4.1 nM | – | 1.12
FT3469 [1], 12.3 nM | – | 0.838
FT3469 [1], 37 nM | – | 0.826
FT3469 [1], 111.1 nM | – | 0.877
FT3469 [1], 333.3 nM | – | 0.897
FT3469 [1], 1000 nM | – | 0.744
FT3469 [1], 3000 nM | – | 0.448
FT3469 [8], 4.1 nM | 0.458 | –
FT3469 [8], 12.3 nM | 0.898 | –
FT3469 [8], 37 nM | 0.644 | –
FT3469 [8], 111.1 nM | 1.18 | –
FT3469 [8], 333.3 nM | 1.03 | –
FT3469 [8], 1000 nM | 2.14 | –
FT3469 [8], 3000 nM | 3.61 | –
